# Experimental data as given in patent publication US9247759B2, “Identification of human T2R receptors that respond to bitter compounds that elicit the bitter taste in compositions, and the use thereof in assays to identify compounds that inhibit (block) bitter taste in compositions and use thereof” (SENOMYX, INC., priority 2007, dated 2016).
# pIC50: −log10 of the molar value. Like-named read-outs stand apart in the source and are kept apart here.
# Target: hT2R8 (Homo sapiens (Human), UniProt Q9NYW2)
# Sequence (Q9NYW2 whole entry): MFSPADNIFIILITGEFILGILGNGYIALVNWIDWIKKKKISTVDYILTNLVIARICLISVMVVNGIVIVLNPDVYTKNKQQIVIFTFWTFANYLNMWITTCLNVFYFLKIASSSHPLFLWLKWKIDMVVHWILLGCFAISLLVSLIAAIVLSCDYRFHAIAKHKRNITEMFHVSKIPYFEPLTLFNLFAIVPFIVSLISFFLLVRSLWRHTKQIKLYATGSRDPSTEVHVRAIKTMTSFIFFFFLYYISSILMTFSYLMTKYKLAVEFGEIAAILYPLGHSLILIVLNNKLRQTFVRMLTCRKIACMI
# Test: hT2R8 antagonist high-throughput FLIPR assay, stable cell line with G16g44, agonist andrographolide
# Format: cell-based
# Conditions: for IC50: unit uM, read-out: IC50 on hT2R08 bitter receptor
# Method in brief: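 HEK293 cells stably co-expressing hT2R8 and chimeric G16g44, read on FLIPR. Test compounds added together with andrographolide (200 μM), which drives the receptor to 70–80% of maximal activity; antagonism seen as reduced agonist response.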
# [1] = table after Example 12-37, read-out: hT2R8 IC50
# [2] = read-out: IC50 on hT2R8 bitter receptor
# [3] = table after Example 10-97, read-out: hT2R8 IC50
SMILES,pIC50 [1],pIC50 [2],pIC50 [3],other results
"Cc1noc(C)c1Cn1cc(N2C(=O)CN(Cc3ccccn3)C2=O)cn1 [Example 10-54, 3-(1-((3,5-dimethylisoxazol-4-yl)methyl)-1H-pyrazol-4-yl)-1-(pyridin-2-ylmethyl)imidazolidine-2,4-dione]",,6.17,6.22,
"COc1cc(C(=O)Nc2cnn(Cc3c(C)noc3C)c2)cc2c1OCCO2 [Example 4-93, N-(1-((3,5-dimethylisoxazol-4-yl)methyl)-1H-pyrazol-4-yl)-8-methoxy-2,3-dihydrobenzo[b][1,4]dioxine-6-carboxamide]",,6.15,,
"COCCOc1cccc(CN2CC(=O)N(c3cnn(Cc4c(C)noc4C)c3)C2=O)c1 [Example 10-14, 3-(1-((3,5-dimethylisoxazol-4-yl)methyl)-1H-pyrazol-4-yl)-1-(3-(2-methoxyethoxy)benzyl)imidazolidine-2,4-dione]",,,7.15,IC50: 0.07 µM
"COc1ccccc1S(=O)(=O)Nc1cnn(Cc2c(C)noc2C)c1 [Example 4-103, N-(1-((3,5-dimethylisoxazol-4-yl)methyl)-1H-pyrazol-4-yl)-2-methoxybenzenesulfonamide]",,,,"pIC50 (Table A, read-out: hT2R8 IC50): 5.42"
"CO[C@H](C(=O)Nc1cnn(Cc2c(C)noc2C)c1)c1ccccc1 [Example 4-67, (S)-N-(1-((3,5-dimethylisoxazol-4-yl)methyl)-1H-pyrazol-4-yl)-2-methoxy-2-phenylacetamide]",,,,"pIC50 (Table A, read-out: hT2R8 IC50): 5.07"
"Cc1noc(C)c1Cn1cc(N2C(=O)CN(Cc3ccccc3C#N)C2=O)cn1 [Example 10-19, 2-((3-(1-((3,5-dimethylisoxazol-4-yl)methyl)-1H-pyrazol-4-yl)-2,4-dioxoimidazolidin-1-yl)methyl)benzonitrile]",,6.30,6.26,
"CSc1ccccc1CN1CC(=O)N(c2cnn(Cc3c(C)noc3C)c2)C1=O [Example 10-15, 3-(1-((3,5-dimethylisoxazol-4-yl)methyl)-1H-pyrazol-4-yl)-1-(2-(methylthio)benzyl)imidazolidine-2,4-dione]",,,7.80,IC50: 0.03 µM
"Cc1noc(C)c1Cn1cc(N2C(=O)NC(CC(=O)Nc3ccccc3)C2=O)cn1 (centres unmarked) [Example 10-48, 2-(1-(1-((3,5-dimethylisoxazol-4-yl)methyl)-1H-pyrazol-4-yl)-2,5-dioxoimidazolidin-4-yl)-N-phenylacetamide]",,6.12,6.13,
"COc1ccnc(CN2CC(=O)N(c3cnn(Cc4c(C)noc4C)c3)C2=O)c1OC [Example 10-72, 1-((3,4-dimethoxypyridin-2-yl)methyl)-3-(1-((3,5-dimethylisoxazol-4-yl)methyl)-1H-pyrazol-4-yl)imidazolidine-2,4-dione]",,6.00,6.00,
"COc1cccc(C(=O)Nc2cnn(Cc3c(C)noc3C)c2)c1OC [Example 4-25, N-(1-((3,5-dimethylisoxazol-4-yl)methyl)-1H-pyrazol-4-yl)-2,3-dimethoxybenzamide]",,,,"pIC50 (Table A, read-out: hT2R8 IC50): 6.21"
"Cc1noc(C)c1Cn1cc(N2C(=O)NC(C)C2=O)cn1 (centres unmarked) [Example 10-41, 3-(1-((3,5-dimethylisoxazol-4-yl)methyl)-1H-pyrazol-4-yl)-5-methylimidazolidine-2,4-dione]",,5.89,5.89,
"Cc1noc(C)c1Cn1cc(N2C(=O)CN(CCc3ccc(F)cc3)C2=O)cn1 [Example 10-84, 3-(1-((3,5-dimethylisoxazol-4-yl)methyl)-1H-pyrazol-4-yl)-1-(4-fluorophenethyl)imidazolidine-2,4-dione]",,8.00,7.57,
"Cc1noc(C)c1Cn1cc(NC(=S)Nc2cccnc2)cn1 [Example 4-107, 1-(1-((3,5-dimethylisoxazol-4-yl)methyl)-1H-pyrazol-4-yl)-3-(pyridin-3-yl)thiourea]",,,,"pIC50 (Table A, read-out: hT2R8 IC50): 5.52"
"Cc1noc(C)c1Cn1cc(N2C(=O)CN(Cc3cccc(C(=O)O)c3)C2=O)cn1 [Example 10-8, 3-((3-(1-((3,5-dimethylisoxazol-4-yl)methyl)-1H-pyrazol-4-yl)-2,4-dioxoimidazolidin-1-yl)methyl)benzoic acid]",,5.74,5.75,
"Cc1noc(C)c1Cn1cc(NC(=O)CC2CCCCC2)cn1 [Example 4-14, 2-cyclohexyl-N-(1-((3,5-dimethylisoxazol-4-yl)methyl)-1H-pyrazol-4-yl)acetamide]",,6.14,,
"Cc1noc(C)c1Cn1cc(N2C(=O)NC(Cc3ccc(O)cc3)C2=O)cn1 (centres unmarked) [Example 10-59, 3-(1-((3,5-dimethylisoxazol-4-yl)methyl)-1H-pyrazol-4-yl)-5-(4-hydroxybenzyl)imidazolidine-2,4-dione]",,6.48,6.49,
"COc1ccc(CN2CC(=O)N(c3cnn(Cc4c(C)noc4C)c3)C2=O)cc1 [Example 10-29, 3-(1-((3,5-dimethylisoxazol-4-yl)methyl)-1H-pyrazol-4-yl)-1-(4-methoxybenzyl)imidazolidine-2,4-dione]",,,5.51,IC50: 0.07 µM
"Cc1noc(C)c1Cn1cc(N2CN(Cc3ccccc3)CN(CCc3ccccc3)C2=O)cn1 [Example 9-7, 5-benzyl-1-(1-((3,5-dimethylisoxazol-4-yl)methyl)-1H-pyrazol-4-yl)-3-phenethyl-1,3,5-triazinan-2-one]",,5.58,5.18,

# More lines, main results first:
pIC50 [1],pIC50 [2],pIC50 [3],SMILES,other results
5.55,,,"Cc1noc(C)c1Cn1cc(N2C(=O)N(Cc3cccc(OCC(=O)O)c3)C(C)(C)C2=O)cn1 [Example 12-90, 2-(3-((3-(1-((3,5-dimethylisoxazol-4-yl)methyl)-1H-pyrazol-4-yl)-5,5-dimethyl-2,4-dioxoimidazolidin-1-yl)methyl)phenoxy)acetic acid]",
6.82,,,"Cc1noc(C)c1Cn1cc(N2C(=O)N(CCc3cccc(F)c3)C(C)(C)C2=O)cn1 [Example 12-50, 3-(1-((3,5-dimethylisoxazol-4-yl)methyl)-1H-pyrazol-4-yl)-1-(3-fluorophenethyl)-5,5-dimethylimidazolidine-2,4-dione]",
,7.40,7.39,"CCn1c(=O)n(-c2cnn(Cc3c(C)noc3C)c2)c(=O)n1Cc1ccccc1 [Example 10-91, 1-benzyl-4-(1-((3,5-dimethylisoxazol-4-yl)methyl)-1H-pyrazol-4-yl)-2-ethyl-1,2,4-triazolidine-3,5-dione]",
6.89,,,"COc1ccc(CCN2C(=O)N(c3cnn(Cc4c(C)noc4C)c3)C(=O)C2(C)C)cc1OC [Example 12-49, 1-(3,4-dimethoxyphenethyl)-3-(1-((3,5-dimethylisoxazol-4-yl)methyl)-1H-pyrazol-4-yl)-5,5-dimethylimidazolidine-2,4-dione]",
6.55,,,"COCc1ccc(CN2C(=O)N(c3cnn(Cc4c(C)noc4C)c3)C(=O)C2(C)C)cc1 [Example 12-92, 3-(1-((3,5-dimethylisoxazol-4-yl)methyl)-1H-pyrazol-4-yl)-1-(4-(methoxymethyl)benzyl)-5,5-dimethylimidazolidine-2,4-dione]",
6.96,,,"Cc1noc(C)c1Cn1cc(N2C(=O)N(Cc3ccccc3F)C(C)(C)C2=O)cn1 [Example 12-45, 3-(1-((3,5-dimethylisoxazol-4-yl)methyl)-1H-pyrazol-4-yl)-1-(2-fluorobenzyl)-5,5-dimethylimidazolidine-2,4-dione]",
7.00,,,"Cc1noc(C)c1Cn1cc(N2C(=O)N(Cc3c(F)cccc3F)C(C)(C)C2=O)cn1 [Example 12-44, 1-(2,6-difluorobenzyl)-3-(1-((3,5-dimethylisoxazol-4-yl)methyl)-1H-pyrazol-4-yl)-5,5-dimethylimidazolidine-2,4-dione]",
7.00,,,"Cc1noc(C)c1Cn1cc(N2C(=O)N(Cc3cccc(O)c3O)C(C)(C)C2=O)cn1 [Example 12-43, 1-(2,3-dihydroxybenzyl)-3-(1-((3,5-dimethylisoxazol-4-yl)methyl)-1H-pyrazol-4-yl)-5,5-dimethylimidazolidine-2,4-dione]",
,7.22,7.24,"COCCn1c(=O)n(-c2cnn(Cc3c(C)noc3C)c2)c(=O)n1Cc1ccccc1 [Example 10-92, 1-benzyl-4-(1-((3,5-dimethylisoxazol-4-yl)methyl)-1H-pyrazol-4-yl)-2-(2-methoxyethyl)-1,2,4-triazolidine-3,5-dione]",
6.25,,,"Cc1noc(C)c1Cn1cc(N2C(=O)N(CCO)C(C)(C)C2=O)cn1 [Example 12-77, 3-(1-((3,5-dimethylisoxazol-4-yl)methyl)-1H-pyrazol-4-yl)-1-(2-hydroxyethyl)-5,5-dimethylimidazolidine-2,4-dione]",
,6.74,,"COc1cc(CN2C(=O)N(c3cnn(Cc4c(C)noc4C)c3)C(=O)C2(C)C)ccc1F [Example 12-20, 3-(1-((3,5-dimethylisoxazol-4-yl)methyl)-1H-pyrazol-4-yl)-1-(4-fluoro-3-methoxybenzyl)-5,5-dimethylimidazolidine-2,4-dione]",
6.27,,,"COc1ccc(CN2C(=O)N(c3cnn(Cc4c(C)noc4C)c3)C(=O)C2(C)C)cc1C [Example 12-76, 3-(1-((3,5-dimethylisoxazol-4-yl)methyl)-1H-pyrazol-4-yl)-1-(4-methoxy-3-methylbenzyl)-5,5-dimethylimidazolidine-2,4-dione]",
6.70,,,"COc1ccc(OC)c(CN2C(=O)N(c3cnn(Cc4c(C)noc4C)c3)C(=O)C2(C)C)c1 [Example 12-54, 1-(2,5-dimethoxybenzyl)-3-(1-((3,5-dimethylisoxazol-4-yl)methyl)-1H-pyrazol-4-yl)-5,5-dimethylimidazolidine-2,4-dione]",
6.40,,,"Cc1noc(C)c1Cn1cc(N2C(=O)N(CCc3cc(F)cc(F)c3)C(C)(C)C2=O)cn1 [Example 12-70, 1-(3,5-difluorophenethyl)-3-(1-((3,5-dimethylisoxazol-4-yl)methyl)-1H-pyrazol-4-yl)-5,5-dimethylimidazolidine-2,4-dione]",
,7.70,,"Cc1noc(C)c1Cn1cc(N2C(=O)[C@@H]3Cc4ccc(O)cc4CN3C2=O)cn1 [Example 13-1, (S)-2-(1-((3,5-dimethylisoxazol-4-yl)methyl)-1H-pyrazol-4-yl)-7-hydroxy-10,10a-dihydroimidazo[1,5-b]isoquinoline-1,3(2H,5H)-dione]",
